The target of series [1] is T1, Kinesin-like protein KIF18A (Homo sapiens, UniProt Q8NI77).
T1 sequence (Q8NI77 whole entry): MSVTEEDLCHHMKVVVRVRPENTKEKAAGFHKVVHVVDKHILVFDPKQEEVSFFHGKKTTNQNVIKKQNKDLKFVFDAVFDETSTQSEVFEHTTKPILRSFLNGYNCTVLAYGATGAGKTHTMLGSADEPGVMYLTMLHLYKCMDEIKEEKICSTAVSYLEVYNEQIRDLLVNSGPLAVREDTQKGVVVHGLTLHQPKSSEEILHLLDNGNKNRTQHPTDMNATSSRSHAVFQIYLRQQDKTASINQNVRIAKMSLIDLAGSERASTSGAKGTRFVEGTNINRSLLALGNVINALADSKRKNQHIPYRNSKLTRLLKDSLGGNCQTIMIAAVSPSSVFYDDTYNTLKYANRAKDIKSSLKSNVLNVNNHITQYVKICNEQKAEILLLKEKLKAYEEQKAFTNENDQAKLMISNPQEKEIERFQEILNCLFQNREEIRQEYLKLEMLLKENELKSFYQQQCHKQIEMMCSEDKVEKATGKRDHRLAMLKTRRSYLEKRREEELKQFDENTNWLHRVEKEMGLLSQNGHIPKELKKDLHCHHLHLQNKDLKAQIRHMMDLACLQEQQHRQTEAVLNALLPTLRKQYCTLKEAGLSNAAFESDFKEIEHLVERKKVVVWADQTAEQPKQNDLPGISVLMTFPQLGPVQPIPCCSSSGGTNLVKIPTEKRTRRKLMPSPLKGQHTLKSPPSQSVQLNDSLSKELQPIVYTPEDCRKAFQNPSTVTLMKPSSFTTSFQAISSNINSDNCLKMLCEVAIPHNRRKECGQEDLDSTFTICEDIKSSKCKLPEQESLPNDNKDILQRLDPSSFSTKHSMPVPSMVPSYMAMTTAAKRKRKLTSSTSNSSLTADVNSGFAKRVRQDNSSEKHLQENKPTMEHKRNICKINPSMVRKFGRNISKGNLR
Description: Inhibition of recombinant His-tagged human KIF18A (1 to 467 residues) expressed in Trichoplusia ni insect cells assessed as inhibition of microtubule-stimulated ATPase activity preincubated for 30 mins followed by ATP addition and further incubated for 15 mins by ADP-Glo reagent based assay. Also noted: species or system Insect cell. (In ADP-Glo the light output rises with the ADP produced.)

Series [2] can be described thus: Metabolic stability in mouse liver microsomes assessed as intrinsic clearance at 0.5 uM incubated upto 40 mins by LCMS analysis. The series is classed as ADME, Microsome. The note with it: read-out: CLH. (Liver microsomes are a subcellular fraction often used to study metabolism.)
Series [3] in a line: Metabolic stability in human liver microsomes assessed as intrinsic clearance at 0.5 uM incubated upto 40 mins by LCMS analysis. The format is ADME, Microsome. To be noted: read-out: CLH.
The test system of series [4] is OVCAR-3. Description: Induction of mitotic arrest in human OVCAR-3 cells assessed as p-histone H3 incubated for 24 hrs by mitotic - imaging assay. The series is classed as functional, cell-based. To be noted: OVCAR-3, 24 h.
For series [5], the system named is OVCAR-3. Description: Antiproliferative activity against human OVCAR-3 cells by nuclear count assay. The format is functional, cell-based.
Series [6] in a line: Clearance in CD-1 mouse at 1 mg/kg, iv and 10 mg/kg, po. The format is ADME, organism-based. To be noted: in vivo.
Series [7] in a line: Volume of distribution at steady state in CD-1 mouse at 1 mg/kg, iv and 10 mg/kg, po. The series is classed as ADME, organism-based. The note with it: in vivo.
The nature of series [8]: Half life in CD-1 mouse at 1 mg/kg, iv and 10 mg/kg, po. The series is classed as ADME, organism-based. The note with it: in vivo.
A short description of series [9]: Cmax in CD-1 mouse at 1 mg/kg, iv and 10 mg/kg, po. The format is ADME, organism-based. Also noted: dose 10 mg/kg, route po. To be noted: in vivo.
The nature of series [10]: Oral bioavailability in CD-1 mouse at 10 mg/kg. The format is ADME, organism-based. To be noted: in vivo.
A short description of series [11]: Unbound fraction in plasma (unknown origin) by ultracentrifugation. The series is classed as ADME, cell-free.
Series [12] addresses T2, Kinesin-like protein KIF11 (Homo sapiens, UniProt P52732).
T2 sequence (P52732 whole entry): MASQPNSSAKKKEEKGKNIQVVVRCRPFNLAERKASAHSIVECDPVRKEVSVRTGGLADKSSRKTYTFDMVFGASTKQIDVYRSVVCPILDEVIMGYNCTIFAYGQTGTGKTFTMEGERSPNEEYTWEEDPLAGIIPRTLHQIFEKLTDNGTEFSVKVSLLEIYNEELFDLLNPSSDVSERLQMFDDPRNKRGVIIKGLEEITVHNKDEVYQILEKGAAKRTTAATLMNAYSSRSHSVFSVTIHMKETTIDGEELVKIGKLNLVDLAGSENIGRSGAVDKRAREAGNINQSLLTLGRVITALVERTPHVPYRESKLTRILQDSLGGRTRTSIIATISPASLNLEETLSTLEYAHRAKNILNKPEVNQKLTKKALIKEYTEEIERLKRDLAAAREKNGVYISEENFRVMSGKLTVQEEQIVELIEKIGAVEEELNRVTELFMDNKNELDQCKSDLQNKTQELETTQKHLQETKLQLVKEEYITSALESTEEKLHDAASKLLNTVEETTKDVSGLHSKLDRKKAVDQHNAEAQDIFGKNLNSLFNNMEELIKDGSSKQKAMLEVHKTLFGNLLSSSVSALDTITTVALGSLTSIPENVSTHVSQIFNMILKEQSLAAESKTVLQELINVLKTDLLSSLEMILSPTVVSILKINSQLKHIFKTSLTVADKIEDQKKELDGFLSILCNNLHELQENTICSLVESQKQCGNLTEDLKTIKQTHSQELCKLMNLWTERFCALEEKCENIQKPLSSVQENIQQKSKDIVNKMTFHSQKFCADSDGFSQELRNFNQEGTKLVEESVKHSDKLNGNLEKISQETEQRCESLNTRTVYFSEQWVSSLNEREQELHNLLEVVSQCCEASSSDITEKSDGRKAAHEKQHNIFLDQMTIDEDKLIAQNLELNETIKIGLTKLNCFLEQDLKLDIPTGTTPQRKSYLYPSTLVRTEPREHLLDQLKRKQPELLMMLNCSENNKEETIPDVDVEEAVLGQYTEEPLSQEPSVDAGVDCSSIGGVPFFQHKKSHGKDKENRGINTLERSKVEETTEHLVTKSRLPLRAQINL
Description: Inhibition of recombinant GST-tagged human Eg5 assessed as inhibition of microtubule-stimulated ATPase activity preincubated for 30 mins followed by ATP addition and further incubated for 15 mins by ADP-Glo reagent based assay.

Series [13] deals with Centromere-associated protein E (Homo sapiens, UniProt Q02224). Description: Inhibition of recombinant GST-tagged human CENP-E assessed as inhibition of microtubule-stimulated ATPase activity preincubated for 30 mins followed by ATP addition and further incubated for 15 mins by ADP-Glo reagent based assay.
Centromere-associated protein E, sequence (Q02224 whole entry): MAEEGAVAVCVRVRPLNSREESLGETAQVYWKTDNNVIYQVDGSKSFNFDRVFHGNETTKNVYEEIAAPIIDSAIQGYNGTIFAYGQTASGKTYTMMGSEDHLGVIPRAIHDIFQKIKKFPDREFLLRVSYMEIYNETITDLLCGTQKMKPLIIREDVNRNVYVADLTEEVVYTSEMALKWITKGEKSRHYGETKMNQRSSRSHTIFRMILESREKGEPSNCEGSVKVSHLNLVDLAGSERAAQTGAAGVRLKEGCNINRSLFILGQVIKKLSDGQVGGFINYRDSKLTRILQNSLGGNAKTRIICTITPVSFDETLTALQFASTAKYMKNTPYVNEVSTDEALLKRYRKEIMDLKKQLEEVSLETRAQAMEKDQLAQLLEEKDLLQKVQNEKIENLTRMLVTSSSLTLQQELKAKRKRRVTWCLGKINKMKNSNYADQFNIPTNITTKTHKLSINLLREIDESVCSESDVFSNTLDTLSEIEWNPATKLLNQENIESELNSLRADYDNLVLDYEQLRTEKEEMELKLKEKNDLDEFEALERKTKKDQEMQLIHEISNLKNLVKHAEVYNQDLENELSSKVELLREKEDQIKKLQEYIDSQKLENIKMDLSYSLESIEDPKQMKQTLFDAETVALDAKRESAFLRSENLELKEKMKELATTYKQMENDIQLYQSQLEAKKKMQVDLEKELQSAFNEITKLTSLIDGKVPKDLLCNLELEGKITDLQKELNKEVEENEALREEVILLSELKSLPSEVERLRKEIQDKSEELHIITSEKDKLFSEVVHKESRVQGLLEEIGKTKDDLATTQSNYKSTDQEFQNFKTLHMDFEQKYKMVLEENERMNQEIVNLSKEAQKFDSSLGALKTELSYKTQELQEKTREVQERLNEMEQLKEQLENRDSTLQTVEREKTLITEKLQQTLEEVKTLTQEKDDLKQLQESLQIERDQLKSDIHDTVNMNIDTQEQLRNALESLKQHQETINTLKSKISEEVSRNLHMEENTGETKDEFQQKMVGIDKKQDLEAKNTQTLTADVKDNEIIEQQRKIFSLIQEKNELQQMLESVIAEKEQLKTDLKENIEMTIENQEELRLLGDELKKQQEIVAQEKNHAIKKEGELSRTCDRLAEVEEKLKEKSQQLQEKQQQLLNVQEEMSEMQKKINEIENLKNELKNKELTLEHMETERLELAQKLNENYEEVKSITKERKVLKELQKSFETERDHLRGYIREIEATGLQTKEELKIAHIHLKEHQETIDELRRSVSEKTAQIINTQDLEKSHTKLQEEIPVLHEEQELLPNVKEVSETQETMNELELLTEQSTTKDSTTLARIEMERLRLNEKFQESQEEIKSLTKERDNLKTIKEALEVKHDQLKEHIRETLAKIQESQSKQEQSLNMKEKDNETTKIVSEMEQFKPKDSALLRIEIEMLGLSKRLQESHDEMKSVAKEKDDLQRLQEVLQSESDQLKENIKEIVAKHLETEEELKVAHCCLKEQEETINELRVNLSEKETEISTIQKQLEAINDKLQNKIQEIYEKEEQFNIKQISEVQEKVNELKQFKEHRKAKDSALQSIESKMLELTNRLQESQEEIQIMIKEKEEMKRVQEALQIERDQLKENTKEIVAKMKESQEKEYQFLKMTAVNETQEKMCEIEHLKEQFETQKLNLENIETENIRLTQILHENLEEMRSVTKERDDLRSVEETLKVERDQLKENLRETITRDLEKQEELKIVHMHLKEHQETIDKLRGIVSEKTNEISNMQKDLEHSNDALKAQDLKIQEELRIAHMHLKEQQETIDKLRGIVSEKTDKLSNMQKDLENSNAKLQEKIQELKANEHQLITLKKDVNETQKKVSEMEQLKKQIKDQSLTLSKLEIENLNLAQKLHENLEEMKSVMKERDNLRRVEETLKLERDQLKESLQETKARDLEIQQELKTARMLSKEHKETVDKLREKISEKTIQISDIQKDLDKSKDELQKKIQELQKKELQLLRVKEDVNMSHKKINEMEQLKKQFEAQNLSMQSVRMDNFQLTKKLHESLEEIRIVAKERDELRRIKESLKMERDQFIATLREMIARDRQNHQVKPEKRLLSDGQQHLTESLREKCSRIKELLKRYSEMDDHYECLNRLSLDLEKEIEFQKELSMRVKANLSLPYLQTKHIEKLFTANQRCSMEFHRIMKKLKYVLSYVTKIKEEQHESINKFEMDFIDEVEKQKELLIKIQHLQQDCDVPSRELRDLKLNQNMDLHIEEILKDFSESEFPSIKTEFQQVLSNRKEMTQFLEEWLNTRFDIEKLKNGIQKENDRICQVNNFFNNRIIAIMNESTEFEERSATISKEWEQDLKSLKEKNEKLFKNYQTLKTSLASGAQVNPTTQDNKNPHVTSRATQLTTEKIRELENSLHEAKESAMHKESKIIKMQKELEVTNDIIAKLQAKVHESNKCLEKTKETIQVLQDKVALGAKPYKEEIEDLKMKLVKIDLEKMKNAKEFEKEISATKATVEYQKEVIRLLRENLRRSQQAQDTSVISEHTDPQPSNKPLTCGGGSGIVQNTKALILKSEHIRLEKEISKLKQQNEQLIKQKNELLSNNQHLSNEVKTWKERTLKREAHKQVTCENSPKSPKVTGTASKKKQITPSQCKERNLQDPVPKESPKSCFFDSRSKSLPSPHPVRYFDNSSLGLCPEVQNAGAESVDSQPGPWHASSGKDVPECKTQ
The subject of another series is MDA-MB-157. Description: Induction of mitotic arrest in TP53 mutant human MDA-MB-157 cells assessed as multipolar spindle arrays by measuring pericentriolar material incubated for 24 hrs by mitotic index assay. The series is classed as functional, cell-based. The note with it: MDA-MB-157, 24 h.

This is an account of results in ChEMBL document CHEMBL5223091, “Targeting the Mitotic Kinesin KIF18A in Chromosomally Unstable Cancers: Hit Optimization Toward an In Vivo Chemical Probe” (J Med Chem, 2022).

Some results are limits rather than exact numbers.

Consider `CC(C)(C)NS(=O)(=O)c1cccc(NC(=O)c2ccc(NC3(CO)CC3)cc2N2CCC3(CC2)CC3)n1`, for which the IC50 in series [1] turned out to be 166 nM. The microsomal CLint at 0.5 µM in series [2] came to 58 µL/min/mg; in series [3], 83 µL/min/mg. The EC50 was 75 nM with OVCAR-3 [4] and 62 nM in the series on OVCAR-3 [5]. The same compound yielded a CL in [6] of 5 mL/min/kg. This compound displayed a Vdss in series [7] of 0.3 L/kg. For the same compound, the half-life in [8] was 1.5 h. The concentration in series [9] peaked (Cmax) at 5.45 µM. In series [10], this compound displayed a bioavailability of 22%. In [11], this compound showed a fraction unbound of 0.011.

With `O=C(Nc1cccc(S(=O)(=O)C2CCCC2)c1)c1cccnc1N1CCC(F)(F)CC1`, in [1], the IC50 turned out to be 5310 nM. Also, the microsomal CLint at 0.5 µM in series [2] and in [3] was above 399 µL/min/mg each time. The half-maximal effective concentration (EC50) in the series on OVCAR-3 [4] was determined as 4630 nM; in the series with OVCAR-3 [5], 4780 nM.

Regarding `CC(C)S(=O)(=O)c1cccc(NC(=O)c2cccnc2N2CCC3(CC2)CC3)c1`, the IC50 in [1] came to 3150 nM. Moreover, the microsomal CLint at 0.5 µM in [2] was above 399 µL/min/mg; in series [3], 375 µL/min/mg. Also, the EC50 in the series on OVCAR-3 [4] was determined as 4290 nM; with OVCAR-3 [5] it was 4480 nM.

For `COc1ccc(C(=O)Nc2cccc(S(=O)(=O)C3CCCC3)n2)c(N2CCC3(CC2)CC3)c1`, in [1], the IC50 came out at 360 nM. The microsomal CLint at 0.5 µM in series [2] and in [3] was above 399 µL/min/mg throughout. The EC50 with OVCAR-3 [4] was determined as 2660 nM; in the series on OVCAR-3 [5], 2350 nM.

With `O=C(Nc1cccc(S(=O)(=O)NC2CC2)c1)c1cccnc1N1CCC2(CC1)CC2`, the IC50 in series [1] came out at 580 nM. Besides, the microsomal CLint at 0.5 µM in [2] and in [3] was above 399 µL/min/mg in each case. Also, the EC50 in the series with OVCAR-3 [4] was found to be 2260 nM; in the series with OVCAR-3 [5], 1790 nM.

`CC1(C)CCN(c2ncccc2C(=O)Nc2cccc(S(=O)(=O)C3CCCC3)c2)CC1`: the IC50 in series [1] came to 1250 nM. Also, the microsomal CLint at 0.5 µM in series [2] and in [3] was above 399 µL/min/mg each time. Further, the 50% effective concentration (EC50) amounted to 2720 nM with OVCAR-3 [4] and 2140 nM in the series with OVCAR-3 [5].

`O=C(Nc1cccc(S(=O)(=O)C2COC2)c1)c1cccnc1N1CCC2(CC1)CC2`: the IC50 in series [1] was 8880 nM. The microsomal CLint at 0.5 µM in [2] was found to be 385 µL/min/mg; in series [3], 183 µL/min/mg. Further, the values for the half-maximal effective concentration (EC50) in the series on OVCAR-3 [4] and in the series on OVCAR-3 [5] were 14800 nM and 12600 nM, respectively.

In the case of `O=C(Nc1cccc(S(=O)(=O)C2CCCC2)c1)c1cccnc1N1CCCCC1`, the concentration for half-maximal inhibition (IC50) was 6160 nM in [1], above 100000 nM in [12], above 100000 nM in series [13] and 4800 nM in the series with MDA-MB-157. The microsomal CLint at 0.5 µM in series [2] and in series [3] was above 399 µL/min/mg throughout. In addition, the EC50 in the series on OVCAR-3 [4] stood at 6350 nM; in the series on OVCAR-3 [5], 5030 nM.

Turning to `O=C(Nc1cccc(S(=O)(=O)C2CCCC2)n1)c1ccc(NCCO)cc1N1CCC2(CC1)CC2`, in series [1], the IC50 is 92 nM. Moreover, the microsomal CLint at 0.5 µM in series [2] and in [3] was above 399 µL/min/mg each time. For the same compound, the EC50 with OVCAR-3 [4] was 177 nM; with OVCAR-3 [5], 117 nM.

As to `CN(CCO)c1ccc(C(=O)Nc2cccc(S(=O)(=O)C3CCCC3)n2)c(N2CCC3(CC2)CC3)c1`, the half-inhibitory concentration (IC50) in series [1] turned out to be 253 nM. Also, the microsomal CLint at 0.5 µM in series [2] and in series [3] was above 399 µL/min/mg throughout. Further, the EC50 with OVCAR-3 [4] was 449 nM; in the series on OVCAR-3 [5], 358 nM.

The term IC50 denotes the concentration at which inhibition is half-maximal. The EC50 is the concentration giving half of the maximal effect. Broadly, the half-life is the time in which the quantity being followed falls by half. High values mean slow decline, low ones rapid decline. By Cmax is commonly meant the highest concentration seen after dosing. The bioavailability is the share of a dose that reaches the circulation, judged against a reference dose that is usually intravenous. A higher bioavailability goes with good availability. As usually defined, the fraction unbound is the share of the substance not bound to proteins or other matrix.
